Where a name gives a salt, the structure may show the parent alone.

This note sets out measurements from patent publication US8389508B2 (Glaxo Group Limited, priority 2010, dated 2013).

The target in experiment [1] is T1, human Endothelial Differentiation G-protein Coupled Receptor 3 (EDG3), S1P3 receptor (Homo sapiens, UniProt Q99500).
T1 construct: expressed in transfected cells; host or cells: GeneBLAzer EDG3-Ga15-NFAT-bla HEK 293T
The experiment is described as follows: S1P3 Assay (GeneBLAzer EDG3-Ga15-NFAT-bla HEK 293T beta-lactamase reporter, agonist dose response). To be noted: EDG3-Ga15-NFAT-bla HEK 293T cells, blue/green emission ratio, 10 point dose response, free base or salt form; read-out: pEC50 (S1P3 assay) (converted). The class given is cell-based. How it is done: GeneBLAzer EDG3-Ga15-NFAT-bla HEK 293T cells (contain the human Endothelial Differentiation G-protein Coupled Receptor 3 (EDG3) and a beta-lactamase reporter gene under control of a NFAT response element and a promiscuous G Protein, Ga15, stably integrated into the GeneBLAzer Ga15-NFAT-bla HEK 293T cell line) were harvested from growth medium and suspended in assay medium (90% DMEM, 10% Charcoal-stripped FBS, 0.1 mM NEAA, 25 mM HEPES (pH 7.3), 100 U/ml penicillin, 100 μg/ml streptomycin) at a density of […]. All test compounds were dissolved in DMSO at a concentration of 10 mM and were prepared in 100% DMSO to provide 10 point dose response curves. Test compounds in the free base or in a salt form were prepared by Velocity 11 Bravo automation (Agilent) were added to wells in columns 2-11 and 13-22; DMSO was added to wells in columns 12 and 23 as unstimulated controls and assay medium was added to wells in columns 1 and 24 as cell-free controls. An S1P3 agonist was added to wells in row 2, columns 2-11 as stimulated controls and test compounds were added to wells in row 2, columns 13-22 and rows 3-15, columns 2-11/13-22 (row 1 and 16 were empty and not used). Compounds in solution were added to the assay plate (Greiner 781090) using an Echo (Labcyte) dose-response program (50 nl/well). The unstimulated and cell-free controls were loaded with 50 nl/well pure DMSO to ensure that the DMSO concentration was constant across the plate for all assays.
50 μl of the cell suspension was added to each well in columns 2-23 of the plate (˜10,000 cells per well). 50 μl of assay medium was added to each well in the cell-free controls (columns 1 and 24). The cells were incubated overnight at 37° C./5% CO2.
(§1) 10 μl of 6× substrate mixture (LiveBLAzer™-FRET B/G substrate (CCF4-AM) Cat # K1096 from Invitrogen, Inc.) was added to each well using Bravo automation and the plates incubated at room temperature for 2 h in the dark. The plate was finally read on EnVision using one excitation channel (409 nm) and two emission channels (460 nm and 530 nm).
(§2) The blue/green emission ratio (460 nm/530 nm) was calculated for each well, by dividing the background-subtracted Blue emission values by the background-subtracted Green emission values. The dose response curve is based on sigmoidal dose-response model. All ratio data was normalized based upon the maximum emission ratio of positive control and minimum emission ratio of negative control (DMSO) on each plate. The intrinsic activity (IA) of each compound is defined as relative response normalised to a reference compound, whose maximum response is defined as 100% after curve fitting.

In experiment [2] the target is T2, human Endothelial Differentiation Gene 1 (EDG1), S1P1 receptor (Homo sapiens, UniProt P21453).
T2 construct: TEV protease site; Gal4-VP16 transcription factor; expressed in transfected cells; host or cells: EDG1-bla/U2OS (Tango GPCR-bla U2OS parental cell line)
The experiment is described as follows: S1P1 Assay (Tango EDG1-bla/U2OS beta-lactamase reporter, agonist dose response). The class given is cell-based. To be noted: EDG1-bla/U2OS cells, blue/green emission ratio, 10 point dose response, free base or salt form; read-out: pEC50 (S1P1 assay) (converted). Here is the method: Recombinant EDG1-bla/U2OS cells (contain the human Endothelial Differentiation Gene 1 (EDG1) linked to a TEV protease site and a Gal4-VP16 transcription factor stably integrated into the Tango GPCR-bla U2OS parental cell line) were harvested from growth medium and passaged into assay medium (Invitrogen Freestyle Expression Medium). The cells were starved for 24 hours at 37° C., 5% CO2, harvested and resuspended in assay medium at a density of ˜200,000 cells/ml. All test compounds were dissolved in DMSO at a concentration of 10 mM and were prepared in 100% DMSO to provide 10 point dose response curves. Test compounds in the free base or in a salt form were prepared by Velocity11 Bravo automation (Agilent) were added to wells in columns 2-11 and 13-22; DMSO was added to wells in columns 12 and 23 as unstimulated controls and assay medium was added to wells in columns 1 and 24 as cell-free controls. An S1P1 agonist was added to wells in row 2, columns 2-11 as stimulated controls and test compounds were added to wells in row 2, columns 13-22 and rows 3-15, columns 2-11/13-22 (row 1 and 16 were empty and not used). Compounds in solution were added to the assay plate (Greiner 781090) using an Echo (Labcyte) dose-response program (50 nl/well). The unstimulated and cell-free controls were loaded with 50 nl/well pure DMSO to ensure that the DMSO concentration was constant across the plate for all assays. 50 μl of the cell suspension was added to each well in columns 2-23 of the plate (˜10,000 cells per well). 50 μl of assay medium was added to each well in the cell-free controls (columns 1 and 24). The cells were incubated overnight at 37° C./5% CO2.
as §1, §2

T2 sequence (P21453 whole entry, the tested form may be a part): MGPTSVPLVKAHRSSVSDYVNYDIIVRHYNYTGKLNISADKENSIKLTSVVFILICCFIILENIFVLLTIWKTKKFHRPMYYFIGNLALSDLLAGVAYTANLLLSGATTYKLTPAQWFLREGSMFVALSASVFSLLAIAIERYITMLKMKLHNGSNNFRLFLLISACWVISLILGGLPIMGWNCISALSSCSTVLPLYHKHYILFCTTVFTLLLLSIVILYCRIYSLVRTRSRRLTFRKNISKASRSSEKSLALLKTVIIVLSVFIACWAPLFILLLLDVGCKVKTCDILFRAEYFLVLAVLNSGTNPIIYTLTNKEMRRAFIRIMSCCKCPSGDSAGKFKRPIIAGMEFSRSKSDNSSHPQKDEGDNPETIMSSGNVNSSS
T1 sequence (Q99500 whole entry): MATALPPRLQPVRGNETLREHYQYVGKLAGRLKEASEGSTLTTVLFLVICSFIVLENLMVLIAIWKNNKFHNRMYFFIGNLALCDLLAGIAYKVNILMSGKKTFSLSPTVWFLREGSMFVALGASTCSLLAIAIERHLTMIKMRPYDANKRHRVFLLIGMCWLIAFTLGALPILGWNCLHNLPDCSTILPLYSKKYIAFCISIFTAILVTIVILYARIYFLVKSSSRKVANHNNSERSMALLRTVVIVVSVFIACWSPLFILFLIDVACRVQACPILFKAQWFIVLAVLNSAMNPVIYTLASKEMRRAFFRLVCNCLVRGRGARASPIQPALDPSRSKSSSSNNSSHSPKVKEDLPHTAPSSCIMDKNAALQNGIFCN

With `CCc1c(CCN2CCC[C@H]2C(=O)O)cccc1-c1nnc(-c2ccc(OC(C)C)c(Cl)c2)s1` [Example 52], the figures for the EC50 in experiment [1] and in experiment [2] were above 10 µM and below 0.1 µM, respectively.

As to `CCc1c(CCN2CC(C(=O)O)C2)cccc1-c1nsc(-c2ccc(OC(C)C)c(C#N)c2)n1` [Example 26, 1-{2-[3-(5-{3-cyano-4-[(1-methylethyl)oxy]phenyl}-1,2,4-thiadiazol-3-yl)-2-ethylphenyl]ethyl}-3-azetidinecarboxylic acid trifluoroacetate], the values for the EC50 in experiment [1] and in experiment [2] were above 3.16 µM and below 0.001 µM, respectively.

For `CCc1c(CCN2CCC[C@H]2C(=O)O)cccc1-c1nsc(-c2ccc(OC(C)C)c(Cl)c2)n1` [Example 65, 1-{2-[3-(5-{3-chloro-4-[(1-methylethyl)oxy]phenyl}-1,2,4-thiadiazol-3-yl)-2-ethylphenyl]ethyl}-L-proline trifluoroacetate], the figures for the EC50 in experiment [1] and in experiment [2] were above 3.16 µM and at most 0.01 µM, respectively.

Turning to `CCc1c(CN2CC[C@H](C(=O)O)C2)cccc1-c1cnc(-c2ccc(OC(C)C)c(C#N)c2)s1` [Example 84], the EC50 in experiment [1] was above 10 µM; in experiment [2], at most 0.01 µM.

Take `COc1c(CCN2CC(C(=O)O)C2)cc(F)cc1-c1cnc(-c2ccc(OC(C)C)c(Cl)c2)s1` [Example 33, 1-{2-[3-(2-{3-chloro-4-[(1-methylethyl)oxy]phenyl}-1,3-thiazol-5-yl)-5-fluoro-2-(methyloxy)phenyl]ethyl}-3-azetidinecarboxylic acid trifluoroacetate]: the values for the EC50 in experiment [1] and in experiment [2] were above 3.16 µM and below 0.001 µM, respectively.

Take `CCc1c(CCN2CCC[C@H]2C(=O)O)cccc1-c1nsc(-c2ccc(CC(C)C)c(C#N)c2)n1` [Example 76, 1-[2-(3-{5-[3-cyano-4-(2-methylpropyl)phenyl]-1,2,4-thiadiazol-3-yl}-2-ethylphenyl)ethyl]-L-proline trifluoroacetate]: the results for the EC50 in experiment [1] and in experiment [2] were above 3.16 µM and at most 0.01 µM, respectively.

Take `Cc1c(CCN2CCC(C(=O)O)CC2)cccc1-c1nnc(-c2ccc(OC(C)C)c(Cl)c2)s1` [Example 58, 1-{2-[3-(5-{3-chloro-4-[(1-methylethyl)oxy]phenyl}-1,3,4-thiadiazol-2-yl)-2-methylphenyl]ethyl}-4-piperidinecarboxylic acid]: the EC50 in experiment [1] was above 3.16 µM; in experiment [2], at most 0.01 µM.

For the compound `CCc1c(CN2CC(C(=O)O)C2)cccc1-c1cnc(-c2ccc(OC(C)C)c(C#N)c2)s1` [Example 38, 1-{[3-(2-{3-cyano-4-[(1-methylethyl)oxy]phenyl}-1,3-thiazol-5-yl)-2-ethylphenyl]methyl}-3-azetidinecarboxylic acid trifluoroacetate], the EC50 was above 10 µM in experiment [1] and below 0.001 µM in experiment [2].

For the compound `CCc1c(-c2nsc(-c3ccc(OC(C)C)c(Cl)c3)n2)cccc1C1CCN(CCC(=O)O)CC1` [Example 100, 3-{4-[3-(5-{3-chloro-4-[(1-methylethyl)oxy]phenyl}-1,2,4-thiadiazol-3-yl)-2-ethylphenyl]-1-piperidinyl}propanoic acid], the values for the EC50 in experiment [1] and in experiment [2] were above 10 µM and at most 0.01 µM, respectively.

With `CCc1c(CN2CCC(C(=O)O)CC2)cccc1-c1nnc(-c2ccc(CC(C)C)c(C#N)c2)s1` [Example 8, 1-[(3-{5-[3-cyano-4-(2-methylpropyl)phenyl]-1,3,4-thiadiazol-2-yl}-2-ethylphenyl)methyl]-4-piperidinecarboxylic acid trifluoroacetate], the EC50 in experiment [1] was above 3.16 µM; in experiment [2], below 0.001 µM.

`CCc1c(CCN2CCC[C@H](C(=O)O)C2)cccc1-c1nnc(-c2ccc(OC(C)C)c(Cl)c2)s1` [Example 57]: the EC50 was above 3.16 µM in experiment [1] and below 0.001 µM in experiment [2].

Consider `CCc1c(CN2CCC(C(=O)O)CC2)cccc1-c1cnc(-c2ccc(OC(C)C)c(Cl)c2)s1` [Example 36, 1-{[3-(2-{3-chloro-4-[(1-methylethyl)oxy]phenyl}-1,3-thiazol-5-yl)-2-ethylphenyl]methyl}-4-piperidinecarboxylic acid trifluoroacetate], for which the EC50 in experiment [1] is above 10 µM; in experiment [2], below 0.1 µM.

Consider `CCc1c(CCN2CC(C(=O)O)C2)cccc1-c1cnc(-c2ccc(OC(C)C)c(C#N)c2)s1` [Example 34, 1-{2-[3-(2-{3-cyano-4-[(1-methylethyl)oxy]phenyl}-1,3-thiazol-5-yl)-2-ethylphenyl]ethyl}-3-azetidinecarboxylic acid trifluoroacetate], for which the EC50 in experiment [1] is above 3.16 µM; in experiment [2], below 0.001 µM.

Consider `CCc1c(CCN2C[C@H](O)C[C@H]2C(=O)O)cccc1-c1nsc(-c2ccc(OC(C)C)c(Cl)c2)n1` [Example 69], for which the EC50 in experiment [1] was above 3.16 µM; in experiment [2], below 0.001 µM.

With `CCc1c(CCN2CCCC(C(=O)O)C2)cccc1-c1nnc(-c2ccc(OC(C)C)c(Cl)c2)s1` (stereo not drawn) [Example 56], the EC50 in experiment [1] was above 3.16 µM; in experiment [2] it was below 0.001 µM.

Turning to `CCc1c(CCCN2CC(C(=O)O)C2)cccc1-c1cnc(-c2ccc(OC(C)C)c(C#N)c2)s1` [Example 93, 1-{3-[3-(2-{3-cyano-4-[(1-methylethyl)oxy]phenyl}-1,3-thiazol-5-yl)-2-ethylphenyl]propyl}-3-azetidinecarboxylic acid trifluoroacetate], the EC50 in experiment [1] is above 3.16 µM; in experiment [2], below 0.001 µM.

As to `CCc1c(-c2nnc(-c3ccc(OC(C)C)c(Cl)c3)s2)cccc1C1CCN(CCC(=O)O)CC1` [Example 95, 3-{4-[3-(5-{3-chloro-4-[(1-methylethyl)oxy]phenyl}-1,3,4-thiadiazol-2-yl)-2-ethylphenyl]-1-piperidinyl}propanoic acid trifluoroacetate], in experiment [1], the EC50 is above 3.16 µM.

In the case of `CCc1c(CN2CCC(C(=O)O)CC2)cccc1-c1nnc(-c2ccc(OC(C)C)c(Cl)c2)s1` [Example 3, 1-{[3-(5-{3-chloro-4-[(1-methylethyl)oxy]phenyl}-1,3,4-thiadiazol-2-yl)-2-ethylphenyl]methyl}-4-piperidinecarboxylic acid trifluoroacetate], the EC50 in experiment [1] is above 3.16 µM.

For `CCc1c(CCN2CC[C@H](C(=O)O)C2)cccc1-c1nsc(-c2ccc(OC(C)C)c(Cl)c2)n1` [Example 68], in experiment [1], the EC50 is above 3.16 µM.

In the case of `CCc1c(-c2nnc(-c3ccc(OC(C)C)c(Cl)c3)s2)cccc1C1CCN(CCCC(=O)O)CC1` [Example 97, 4-{4-[3-(5-{3-chloro-4-[(1-methylethyl)oxy]phenyl}-1,3,4-thiadiazol-2-yl)-2-ethylphenyl]-1-piperidinyl}butanoic acid trifluoroacetate], the EC50 in experiment [1] was above 3.16 µM.
